From patent US9181265B2, “Substituted 2,3-dihydro-1H-benzo[a]pyrano[2,3-c]phenazines as anti-angiogenic and anti-cancer agents” (UNIVERSITE CATHOLIQUE DE LOUVAIN, priority 2010, dated 2015)
Read-outs that look alike come from different tables or passages of the source. Marks after values point to notes of the source that are not given here. Each block holds one compound with its values, some of them ahead of it.

Columns and labels:
PC3 = assay: MTT test of overall cell growth, PC3 prostate cancer cells, normoxia or hypoxia; format: cell-based, human
Description: (§1) MTT tests were performed in order to rapidly, i.e. within 3 days, measure the effect of compounds of this invention on the overall cell growth. The test measured the number of metabolically active living cells that were able to transform the yellow product 3-(4,5-dimethylthiazol-2-yl)-2,5-diphenyl tetrazolium bromide (herein referred as MTT) into the blue product formazan dye by mitochondrial reduction. The amount of formazan obtained at the end of the experiment, measured by means of a spectrophotometer (Plate Reader Victor X4 Microplate reader (Perkin Elmer), is directly proportional to the number of living cells. Optical density determination thus enabled a quantitative measurement of the effect of the investigated compounds under control conditions (normoxia) as compared to the hypoxic conditions (0.1 or 1% O2) and/or untreated conditions.
(§2) Human umbilical vein endothelial cells (HUVEC) and six human cancer cell lines were used in the MTT tests. These cancer cell lines cover five histological cancer types including cervix (SiHa), breast (MCF-7 and MDA-MB231), prostate (PC3), glioma (U373), and colorectal (LoVo) cancers.
(§3) To perform the assay, cells were allowed to grow in 96-well microplates with a flat bottom following addition of an amount of 100 μl of cell suspension per well with 4,500 cells/well. Each cell line was seeded in its appropriate culture medium. HUVEC were cultured in a specific endothelial cell growth medium (ECACC, Sigma); SiHa cells in Glutamax-containing DMEM with 4.5 g/1 glucose (Invitrogen) supplemented with 10% Foetal Bovine Serum (PAA) and 1% penicillin+streptomycin mix (Invitrogen); MCF-7, MDA-MB-231, PC3, and LoVo cells in Glutamax-containing RPMI supplemented with 10% Foetal Bovine Serum (PAA) and 1% penicillin+streptomycin mix (Invitrogen) and U373 cells in Glutamax-containing DMEM (Invitrogen) with 5% Foetal Bovine Serum (PAA) and 1% penicillin+streptomycin mix (Invitrogen).
(§4) The detailed experimental procedure was the following: after a 24-hour period of incubation at 37° C., the culture medium was replaced by 100 μl of fresh medium in which the tested compound was previously dissolved, at the following concentrations: 10^−8 M, 5.10^−8, 10^−7, 5.10^−7, 10^−6, 5.10^−6, 10^−5, 5.10^−5 and 10^−[…]. Each experiment was performed in sestuplicates (6 times).
(§5) Cells were then incubated under normoxia in a Binder incubator (the O2 level corresponding to the concentration in the ambient air), or in a Ruskin hypoxia workstation under either 0.1% O2 (v/v) or 1% O2 (v/v). Under both conditions, the atmosphere was humidified and the CO2 concentration was fixed at 5 vol. %.
(§6) After 72 hours of incubation at 37° C. under normoxic or hypoxic conditions, with or without the compound to be tested, the medium was replaced by 100 μl of HBSS (without phenol red) containing MTT at a concentration of 0.5 or 1 mg/ml. The micro-wells were subsequently incubated during 3 hours and a half at 37° C. and centrifuged at 1300 rpm during 10 minutes. Medium was removed and formazan crystals formed were dissolved in 100 μl DMSO. The micro-wells were shaken for 5 minutes and read on a spectrophotometer at wavelengths of 570 nm (maximal formazan absorbance).
(§7) For each experimental condition, the mean optical density was calculated, allowing the determination of the percentage of living cells in comparison to the control.

LoVo = assay: MTT test of overall cell growth, LoVo colorectal cancer cells, normoxia or hypoxia; format: cell-based, human; details: for Selectivity: IC50 (normoxia)/IC50 (hypoxia 1% O2), if u.t.d., ratio of activity at 100 μM
Description: as §1, §2, §3, §4, §5, §6, §7

[1] = test system: Human umbilical vein endothelial cells (HUVEC); assay: MTT test of overall cell growth, endothelial cells, normoxic or hypoxic conditions; format: cell-based; details: for Selectivity: if u.t.d., ratio of activity at 100 μM
Description: as §1, §2, §3, §4, §5, §6, §7

siHa = assay: MTT test of overall cell growth, SiHa cervix cancer cells, normoxia or hypoxia; format: cell-based, human; details: for Selectivity: IC50 (normoxia)/IC50 (hypoxia 1% O2), if u.t.d., ratio of activity at 100 μM
Description: as §1, §2, §3, §4, §5, §6, §7

MDA-MB-231 = assay: MTT test of overall cell growth, MDA-MB-231 breast cancer cells, normoxia or hypoxia; format: cell-based, human; details: for Selectivity: MDA-MB-231, IC50 (normoxia)/IC50 (hypoxia 1% O2), if u.t.d., ratio of activity at 100 μM
Description: as §1, §2, §3, §4, §5, §6, §7

U373 = assay: MTT test of overall cell growth, U373 glioma cells, normoxia or hypoxia; format: cell-based, human; details: for Selectivity: U373, IC50 (normoxia)/IC50 (hypoxia 1% O2), if u.t.d., ratio of activity at 100 μM
Description: as §1, §2, §3, §4, §5, §6, §7

MCF-7 = assay: MTT test of overall cell growth, MCF-7 breast cancer cells, normoxia or hypoxia; format: cell-based, human; details: for Selectivity: MCF-7, IC50 (normoxia)/IC50 (hypoxia 1% O2), if u.t.d., ratio of activity at 100 μM
Description: as §1, §2, §3, §4, §5, §6, §7

[2] = Homo sapiens, hypoxia 1% O2, 72 h, read-out: IC50 (μM) Hypoxia 1% O2
[3] = IC50 (normoxia)/IC50 (hypoxia 0.1%)
[4] = IC50 (normoxia)/IC50 (hypoxia 1%)
[5] = hypoxia 1% O2, 72 h, read-out: IC50 (μM) Hypoxia 1% O2
[6] = normoxia, 72 h, read-out: IC50 (μM) Normoxia

IC50 (μM) Hypoxia 1% O2 (PC3; PC3, hypoxia 1% O2, 72 h): u.t.d. | IC50 (μM) Normoxia (PC3; PC3, normoxia, 72 h): u.t.d. | IC50 (LoVo; [2]): 154 µM | IC50 (LoVo; Homo sapiens, normoxia, 72 h, read-out: IC50 (μM) Normoxia): 116 µM | IC50 (siHa; [2]): 92.1 µM | IC50 (μM) Normoxia (siHa; normoxia, 72 h): u.t.d. | IC50 (MDA-MB-231; Homo sapiens, MDA-MB-231, hypoxia 1% O2, 72 h, read-out: IC50 (μM) Hypoxia 1% O2): 126 µM | IC50 (μM) Normoxia (MDA-MB-231; MDA-MB-231, normoxia, 72 h): u.t.d. | IC50 (U373; Homo sapiens, U373 MG, U373, hypoxia 1% O2, 72 h, read-out: IC50 (μM) Hypoxia 1% O2): 113 µM | IC50 (μM) Normoxia (U373; U373, normoxia, 72 h): u.t.d. | IC50 (MCF-7; Homo sapiens, MCF7, MCF-7, hypoxia 1% O2, 72 h, read-out: IC50 (μM) Hypoxia 1% O2): 91.2 µM | IC50 (μM) Normoxia (MCF-7; MCF-7, normoxia, 72 h): u.t.d.
SMILES: COc1ccc(CNC(=O)c2ccc3nc4c(nc3c2)c2c(c3ccccc34)OC(C)(C)[C@H]3CC[C@H](C)C[C@H]23)c(OC)c1 [Compound 16′]
Selectivity (LoVo): 0.76 | IC50 ([1]; Homo sapiens, 72 h, hypoxia 0.1% O2, 72 h, read-out: IC50 (μM) Hypoxia 0.1%): 0.21 µM | IC50 ([1]; Homo sapiens, 72 h, hypoxia 1% O2, 72 h, read-out: IC50 (μM) Hypoxia 1%): 7.96 µM | IC50 ([1]; Homo sapiens, 72 h, normoxia, 72 h, series compared with hypoxia 0.1%, read-out: IC50 (μM) Normoxia): 16.7 µM | IC50 ([1]; Homo sapiens, 72 h, normoxia, 72 h, series compared with hypoxia 1%, read-out: IC50 (μM) Normoxia): 120 µM | Selectivity [1, 3]: 80 | Selectivity [1, 4]: 15 | Selectivity (siHa): >1.89^b | Selectivity (MDA-MB-231): >1.38^b | Selectivity (U373): >1.54^b | Selectivity (MCF-7): >1.91^b

SMILES: C[C@H]1CC[C@H]2[C@H](C1)c1c(c3ccccc3c3nc4cc(C(=O)N[C@@H](CO)Cc5ccccc5)ccc4nc13)OC2(C)C [Compound 17]
IC50 (PC3; PC3, hypoxia 1% O2, 72 h, read-out: IC50 (μM) Hypoxia 1% O2): 11.1 µM | IC50 (PC3; PC3, normoxia, 72 h, read-out: IC50 (μM) Normoxia): 10.4 µM | Selectivity (PC3; PC3, IC50 (normoxia)/IC50 (hypoxia 1% O2), if u.t.d., ratio of activity at 100 μM): 0.94 | Selectivity (LoVo): 1.04 | IC50 (LoVo; [5]): 9.47 µM | IC50 (LoVo; [6]): 9.83 µM | Selectivity [1, 3]: 134 | Selectivity [1, 4]: 8 | IC50 ([1]; hypoxia 0.1% O2, 72 h, read-out: IC50 (μM) Hypoxia 0.1%): 0.05 µM | IC50 ([1]; hypoxia 1% O2, 72 h, read-out: IC50 (μM) Hypoxia 1%): 0.63 µM | IC50 ([1]; normoxia, 72 h, series compared with hypoxia 0.1%, read-out: IC50 (μM) Normoxia): 6.25 µM | IC50 ([1]; normoxia, 72 h, series compared with hypoxia 1%, read-out: IC50 (μM) Normoxia): 5.18 µM | Selectivity (siHa): 7.12 | IC50 (siHa; [5]): 10.5 µM | IC50 (siHa; [6]): 75 µM | IC50 (MDA-MB-231; MDA-MB-231, hypoxia 1% O2, 72 h, read-out: IC50 (μM) Hypoxia 1% O2): 11.4 µM | IC50 (MDA-MB-231; MDA-MB-231, normoxia, 72 h, read-out: IC50 (μM) Normoxia): 13.4 µM | Selectivity (MDA-MB-231): 1.17 | IC50 (U373; U373, hypoxia 1% O2, 72 h, read-out: IC50 (μM) Hypoxia 1% O2): 1.23 µM | IC50 (U373; U373, normoxia, 72 h, read-out: IC50 (μM) Normoxia): 6.97 µM | Selectivity (U373): 5.65 | IC50 (MCF-7; MCF-7, hypoxia 1% O2, 72 h, read-out: IC50 (μM) Hypoxia 1% O2): 11.1 µM | IC50 (MCF-7; MCF-7, normoxia, 72 h, read-out: IC50 (μM) Normoxia): 12.2 µM | Selectivity (MCF-7): 1.10
